Results on 18 compounds are retold here after patent US9617289B2, “RSV antiviral compounds” (JANSSEN R&D IRELAND, priority 2012, dated 2017).

For one series, the system named is rgRSV224 virus. As to the kind of experiment: Antiviral activity: inhibition of rgRSV224 (GFP-expressing RSV) replication in HeLa cells. In kind it is cell-based, respiratory syncytial virus. The note with it: for EC50: human respiratory syncytial virus, HeLa, 72 h, read-out: pEC50, rgRSV224 (MOI=0.02) in HeLa cells, GFP expression three days post-virus exposure (converted); for pEC50: rgRSV224 (MOI=0.02) in HeLa cells, GFP expression three days post-virus exposure. An outline of the steps: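 HeLa cells infected with GFP-expressing rgRSV224 at MOI 0.02 alongside 4-fold compound dilutions in duplicate (0.5% DMSO). Incubated 3 days at 37 °C; EC50 taken as 50% inhibition of GFP expression by laser microscopy. CC50 measured in parallel uninfected cells by ATP content after 3 days; SI = CC50/EC50.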

Where only a bound is given, the exact number is not on record here.

As usually defined, the melting point is the temperature of the solid-liquid transition. Consider `CS(=O)(=O)CCCn1c(CN2C(=O)C3(CN(CC(F)(F)F)C3)c3ccccc32)nc2cc(Cl)ccc21` [Compound 9, 1′-[[5-chloro-1-(3-methylsulfonylpropyl)benzimidazol-2-yl]methyl]-1-(2,2,2-trifluoroethyl)spiro[azetidine-3,3′-indoline]-2′-one], for which the melting point is 200.68 °C. Further, the EC50 in the series with rgRSV224 virus is 0.398 nM.
`CS(=O)(=O)CCCn1c(CN2C(=O)C3(CCOCC3)c3ccc(F)cc32)nc2cc(Cl)ccc21` [Compound 10, 1-((5-chloro-1-(3-(methylsulfonyl)propyl)-1H-benzo[d]-imidazol-2-yl)methyl)-6-fluoro-2′,3′,5′,6′-tetrahydro-spiro[indoline-3,4′-pyran]-2-one] displayed a melting point of 207.14 °C. Moreover, the EC50 with rgRSV224 virus is 2 nM.
The matching figures for `CS(=O)(=O)CCCn1c(CN2C(=O)C3(CC(O)C3)c3ccccc32)nc2cc(Cl)ccc21` [Compound 11, (3S)-1′-({5-chloro-1-[3-(methylsulfonyl)propyl]-1H-benzimidazol-2-yl}methyl)-3-hydroxyspiro[cyclobutane-1,3′-indol]-2′(1′H)-one]: 232.91 °C and 0.398 nM.
What is called pEC50 is the EC50 on a negative log10 scale, so that one unit is a factor of ten. A lower pEC50 goes with a large EC50. For the compound `CS(=O)(=O)CCCn1c(CN2C(=O)C3(CC(O)C3)c3ccccc32)nc2cc(Cl)ccc21` [Compound 12, (3R)-1′-({5-chloro-1-[3-(methylsulfonyl)propyl]-1H-benzimidazol-2-yl}methyl)-3-hydroxyspiro[cyclobutane-1,3′-indol]-2′(1′H)-one], the melting point was found to be 209.84 °C. The pEC50 with rgRSV224 virus came out at 9.3.
In turn, `CC(C)C(=O)N1CC2(C1)C(=O)N(Cc1nc3cc(Cl)ccc3n1CCCS(C)(=O)=O)c1ccccc12` [Compound 28, 1′-({5-chloro-1-[3-(methylsulfonyl)propyl]-1H-benzimidazol-2-yl}methyl)-1-(2-methylpropanoyl)-spiro[azetidine-3,3′-indol]-2′(1′H)-one] displayed a melting point of 133.12 °C. Moreover, the EC50 in the series on rgRSV224 virus was less than 0.158 nM.
Taken in the same sequence, the figures for `CS(=O)(=O)CCCn1c(CN2C(=O)C3(CN(S(=O)(=O)C4CC4)C3)c3ccccc32)nc2cc(Cl)ccc21` [Compound 29, 1′-({5-chloro-1-[3-(methylsulfonyl)propyl]-1H-benzimidazol-2-yl}methyl)-1-(cyclopropylsulfonyl)-spiro[azetidine-3,3′-indol]-2′(1′H)-one] were 191.15 °C and less than 0.158 nM.
In turn, `CC(=O)N1CC2(C1)C(=O)N(Cc1nc3cc(Cl)ccc3n1CCCS(C)(=O)=O)c1ccccc12` [Compound 30, 1-acetyl-1′-({5-chloro-1-[3-(methylsulfonyl)propyl]-1H-benzimidazol-2-yl}methyl)spiro[azetidine-3,3′-indol]-2′(1′H)-one] yielded a melting point of 221.24 °C. In the series with rgRSV224 virus, the EC50 was 0.251 nM.
Taken in the same sequence, the figures for `CS(=O)(=O)CCCn1c(CN2C(=O)C3(CN(C(=O)C(F)(F)F)C3)c3ccccc32)nc2cc(Cl)ccc21` [Compound 31, 1-({5-chloro-1-[3-(methylsulfonyl)propyl]-1H-benzimidazol-2-yl}methyl)-1-(trifluoroacetyl)spiro-[azetidine-3,3′-indol]-2′(1′H)-one] were 249.58 °C and 3.16 nM.
Taken in the same sequence, the figures for `CC(=O)N1CCC2(CC1)C(=O)N(Cc1nc3cc(Cl)ccc3n1CCCS(C)(=O)=O)c1ccccc12` [Compound 32, 1′-acetyl-1-({5-chloro-1-[3-(methylsulfonyl)propyl]-1H-benzimidazol-2-yl}methyl)spiro[indole-3,4′-piperidin]-2(1H)-one] were 247.98 °C and 0.631 nM.
The matching figures for `CS(=O)(=O)CCCn1c(CN2C(=O)C3(CCN(S(=O)(=O)c4ccc(F)cc4)CC3)c3ccccc32)nc2cc(Cl)ccc21` [Compound 34, 1-({5-chloro-1-[3-(methylsulfonyl)propyl]-1H-benzimidazol-2-yl}methyl)-1′-[(4-fluorophenyl)-sulfonyl]spiro[indole-3,4′-piperidin]-2(1H)-one]: 183.97 °C and 1.26 nM.
The compound `CS(=O)(=O)CCCn1c(CN2C(=O)C3(CCN(S(=O)(=O)C4CC4)CC3)c3ccccc32)nc2cc(Cl)ccc21` [Compound 35, 1-({5-chloro-1-[3-(methylsulfonyl)propyl]-1H-benzimidazol-2-yl}methyl)-1′-(cyclopropylsulfonyl)-spiro[indole-3,4′-piperidin]-2(1H)-one] gave a melting point of 194.85 °C. Besides, the EC50 with rgRSV224 virus is 0.794 nM.
Taken in the same sequence, the figures for `COc1ccc(S(=O)(=O)N2CCC3(CC2)C(=O)N(Cc2nc4cc(Cl)ccc4n2CCCS(C)(=O)=O)c2ccccc23)cc1` [Compound 36, 1-({5-chloro-1-[3-(methylsulfonyl)propyl]-1H-benzimidazol-2-yl}methyl)-1′-[(4-methoxyphenyl)-sulfonyl]spiro[indole-3,4′-piperidin]-2(1H)-one] were 237.33 °C and 0.251 nM.
The matching figures for `COC(=O)N1CCC2(CC1)C(=O)N(Cc1cc3cc(Cl)ccc3n1CCCS(C)(=O)=O)c1cnccc12` [Compound 55]: 234.28 °C and 0.0501 nM.
On to `CC(=O)N1CCC2(CC1)C(=O)N(Cc1cc3cc(Cl)ccc3n1CCCS(C)(=O)=O)c1cnccc12` [Compound 56, 1-acetyl-1′-({5-chloro-1-[3-(methylsulfonyl)propyl]-1H-indol-2-yl}methyl)spiro[piperidine-4,3′-pyrrolo[2,3-c]pyridin]-2′(1′H)-one], for which the melting point was 258.32 °C. In addition, in the series on rgRSV224 virus, the EC50 is 0.316 nM.
Taken in the same sequence, the figures for `CC(=O)N1CC2(C1)C(=O)N(Cc1cc3cc(Cl)ccc3n1CCCC#N)c1ccccc12` [Compound 62, 4-{2-[(1-acetyl-2′-oxospiro[azetidine-3,3′-indol]-1′(2′H)-yl)-methyl]-5-chloro-1H-indol-l-yl}butanenitrile] were 195.25 °C and 1 nM.
The matching figures for `CC(C)(C)OC(=O)N1CC2(C1)C(=O)N(Cc1nc3cc(Cl)ccc3n1CCCC#N)c1ccccc12` [Compound 70, tert-butyl 1′-((5-chloro-1-(3-cyanopropyl)-1H-benzo[d]-imidazol-2-yl)methyl)-2′-oxospiro[azetidine-3,3′-indoline]-1-carboxylate]: 144.1 °C and less than 0.158 nM.
The matching figures for `O=C1N(Cc2nc3cc(Cl)ccc3n2CCCC(F)(F)F)c2cc(F)ccc2C12CCOCC2` [Compound 71, 1-((5-chloro-1-(4,4,4-trifluorobutyl)-1H-benzo[d]imidazol-2-yl)methyl)-6-fluoro-2′,3′,5′,6′-tetrahydrospiro[indoline-3,4′-pyran]-2-one]: 172.7 °C and 3.16 nM.
Take `CC(=O)N1CC2(C1)C(=O)N(Cc1nc3cc(Cl)ccc3n1CCCS(C)(=O)=O)c1ccccc12` [Compound 72, 1-acetyl-1′-((5-chloro-1-(3-(methylsulfonyl)propyl)-1H-benzo[d]imidazol-2-yl)methyl)spiro[azetidine-3,3′-indolin]-2′-one]: the melting point was determined as 226.51 °C. The compound also had a pEC50 in the series on rgRSV224 virus of 9.6.
